As usually defined, the IC50 is the midpoint of a concentration-inhibition curve.

MAPKAPK2, sequence (P49137 whole entry, species assumed): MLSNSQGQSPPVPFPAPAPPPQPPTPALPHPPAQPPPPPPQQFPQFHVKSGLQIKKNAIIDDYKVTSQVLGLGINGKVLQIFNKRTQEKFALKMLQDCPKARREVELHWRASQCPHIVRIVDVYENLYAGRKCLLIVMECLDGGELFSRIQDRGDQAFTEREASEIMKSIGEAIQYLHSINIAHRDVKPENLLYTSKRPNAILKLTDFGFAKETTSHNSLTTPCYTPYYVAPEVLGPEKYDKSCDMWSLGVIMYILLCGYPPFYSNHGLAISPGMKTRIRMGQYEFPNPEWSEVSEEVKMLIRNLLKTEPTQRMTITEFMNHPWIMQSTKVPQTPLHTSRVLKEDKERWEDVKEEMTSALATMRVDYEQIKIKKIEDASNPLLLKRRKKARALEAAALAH

The assay concerns the target MAPKAPK2 (Homo sapiens, UniProt P49137). Briefly: MK2 Enzymatic Assay. Conditions: 0.5 nM MAPKAPK2, 3 μM ATP, 2 μM Ser/Thr4 peptide, 23° C., values given as concentration bins. The format is biochemical. In outline:
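Percent phosphorylation was derived from coumarin and fluorescein emissions relative to 0% and 100% phospho-peptide controls, read after a 120 min development step. Reactions used 2× stocks of 1 nM kinase, 4 μM peptide and 6 μM ATP; enzyme and peptide sat 20 min before a 120 min ATP reaction.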
For the compound `CCNC[C@@H]1CCN(c2ccc3c(c2)Cn2cc(-c4ccc(F)cc4)cc2-c2nccn2-3)C1` [Compound 464, (S)—N-((1-(12-(4-fluorophenyl)-9H-benzo[e]imidazo[2,1-c]pyrrolo[1,2-a][1,4]diazepin-7-yl)pyrrolidin-3-yl)methyl)ethanamine], the concentration for half-maximal inhibition (IC50) is under 0.05 µM.
Compound `CN(C)C[C@H]1CN(c2ccc3c(c2)Cn2cc(-c4ccc(C#N)cc4)cc2-c2nncn2-3)C[C@@H]1O` [Compound 109, 4-(7-((3S,4R)-3-((dimethylamino)methyl)-4-hydroxypyrrolidin-1-yl)-9H-benzo[e]pyrrolo[1,2-a][1,2,4]triazolo[3,4-c][1,4]diazepin-12-yl)benzonitrile] registered an IC50 of under 0.05 µM.
The compound `CN(C)[C@@H]1CN(c2ccc3c(n2)Cn2cc(-c4ccc(C#N)cc4)cc2-c2nccn2-3)C[C@@H]1O` [Compound 303, 4-(7-((3R,4S)-3-(dimethylamino)-4-hydroxypyrrolidin-1-yl)-9H-imidazo[2,1-c]pyrido[3,2-e]pyrrolo[1,2-a][1,4]diazepin-12-yl)benzonitrile] gave an IC50 of 0.05 to 0.1 µM.
`Fc1ccc(-c2cc3n(c2)Cc2cc(N4CCC5(CC4)CNC5)ccc2-n2nnnc2-3)cc1` [Compound 402, 12-(4-fluorophenyl)-7-(2,7-diazaspiro[3.5]nonan-7-yl)-9H-benzo[e]pyrrolo[1,2-a]tetrazolo[5,1-c][1,4]diazepine]: the IC50 was under 0.05 µM.
Compound `CN(C)C[C@H]1CCN(c2ccc3c(c2)Cn2cc(-c4ccc(F)cc4)cc2-c2nnnn2-3)C1` [Compound 394, (R)-1-(1-(12-(4-fluorophenyl)-9H-benzo[e]pyrrolo[1,2-a]tetrazolo[5,1-c][1,4]diazepin-7-yl)pyrrolidin-3-yl)-N,N-dimethylmethanamine] yielded an IC50 of 0.05 to 0.1 µM.
Turning to `CN(C)C1CCN(c2cc3c(cn2)-n2cnnc2-c2cc(-c4ccc(C#N)cc4)cn2C3)CC1` [Compound 321, 4-(7-(4-(dimethylamino)piperidin-1-yl)-9H-pyrido[3,4-e]pyrrolo[1,2-a][1,2,4]triazolo[3,4-c][1,4]diazepin-12-yl)benzonitrile], the concentration for half-maximal inhibition (IC50) was 0.1 to 0.2 µM.
`CN(C)[C@H]1CN(c2ccc3c(c2)Cn2cc(-c4ccc(C#N)cc4)cc2-c2nncn2-3)C[C@@H]1O` [Compound 58, 4-(7-((3S,4S)-3-(dimethylamino)-4-hydroxypyrrolidin-1-yl)-9H-benzo[e]pyrrolo[1,2-a][1,2,4]triazolo[3,4-c][1,4]diazepin-12-yl)benzonitrile] showed a concentration for half-maximal inhibition (IC50) of 0.05 to 0.1 µM.
`CN[C@@H]1CN(c2ccc3c(c2)Cn2cc(-c4ccc(F)cc4)cc2-c2ncnn2-3)C[C@H]1CO` (relative stereo) [Compound 505, (Trans-1-(12-(4-fluorophenyl)-9H-benzo[e]pyrrolo[1,2-a][1,2,4]triazolo[5,1-c][1,4]diazepin-7-yl)-4-(methylamino)pyrrolidin-3-yl)methanol] registered an IC50 of 0.05 to 0.1 µM.
With `Fc1ccc(-c2cc3n(c2)Cc2cc(N4CC5(CCNC5)C4)ccc2-n2ccnc2-3)cc1` [Compound 378, 12-(4-fluorophenyl)-7-(2,6-diazaspiro[3.4]octan-2-yl)-9H-benzo[e]imidazo[2,1-c]pyrrolo[1,2-a][1,4]diazepine] the figure was under 0.05 µM.
`CNC[C@@H]1CCN(c2ccc3c(c2)Cn2c(cc(-c4ccc(C#N)cc4)c2Cl)-c2nncn2-3)C1` [Compound 173, (S)-4-(11-chloro-7-(3-((methylamino)methyl)pyrrolidin-1-yl)-9H-benzo[e]pyrrolo[1,2-a][1,2,4]triazolo[3,4-c][1,4]diazepin-12-yl)benzonitrile]: the IC50 was under 0.05 µM.
Compound `CN(C)C1CCN(c2ccc3c(c2)Cn2cc(-c4ccc(F)cc4)cc2-c2nccn2-3)CC1` [Compound 381, 1-(12-(4-fluorophenyl)-9H-benzo[e]imidazo[2,1-c]pyrrolo[1,2-a][1,4]diazepin-7-yl)-N,N-dimethylpiperidin-4-amine] showed an IC50 of under 0.05 µM.
`CNCC1CCN(c2ccc3c(c2)Cn2cc(-c4ccc(F)cc4)cc2-c2nccn2-3)C1` (stereo not shown) [Compound 342, 1-(1-(12-(4-fluorophenyl)-9H-benzo[e]imidazo[2,1-c]pyrrolo[1,2-a][1,4]diazepin-7-yl)pyrrolidin-3-yl)-N-methylmethanamine] yielded an IC50 of under 0.05 µM.
`CN(C)[C@@H]1CN(c2ccc3c(c2)Cn2cc(-c4ccc(F)cc4)cc2-c2nccn2-3)C[C@@H]1O` [Compound 353, (3S,4R)-4-(dimethylamino)-1-(12-(4-fluorophenyl)-9H-benzo[e]imidazo[2,1-c]pyrrolo[1,2-a] [1,4]diazepin-7-yl)pyrrolidin-3-ol] gave an IC50 of under 0.05 µM.
The value for `CN(C)[C@@H]1CCN(c2ccc3c(c2)Cn2cc(-c4ccc(F)cc4)cc2-c2nccn2-3)C1` [Compound 379, (R)-1-(12-(4-fluorophenyl)-9H-benzo[e]imidazo[2,1-c]pyrrolo[1,2-a][1,4]diazepin-7-yl)-N,N-dimethylpyrrolidin-3-amine] was under 0.05 µM.
For the compound `CNCC1CCN(c2ccc3c(c2)Cn2cc(-c4ccc(F)cc4)cc2-c2nnnn2-3)C1` (stereo not shown) [Compound 388, 1-(1-(12-(4-fluorophenyl)-9H-benzo[e]pyrrolo[1,2-a]tetrazolo[5,1-c][1,4]diazepin-7-yl)pyrrolidin-3-yl)-N-methylmethanamine], the IC50 was under 0.05 µM.
As for `OC1CCN(C[C@H]2CCN(c3ccc4c(c3)Cn3cc(-c5ccc(F)cc5)cc3-c3nccn3-4)C2)CC1` [Compound 362, (R)-1-((1-(12-(4-fluorophenyl)-9H-benzo[e]imidazo[2,1-c]pyrrolo[1,2-a][1,4]diazepin-7-yl)pyrrolidin-3-yl)methyl)piperidin-4-ol], the IC50 is under 0.05 µM.
The compound `CNCC1CCN(c2ccc3c(c2)Cn2cc(-c4ccc(C#N)cc4)cc2-c2nnnn2-3)C1` (stereo not shown) [Compound 239, 4-(7-(3-((methylamino)methyl)pyrrolidin-1-yl)-9H-benzo[e]pyrrolo[1,2-a]tetrazolo[5,1-c] [1,4]diazepin-12-yl)benzonitrile] yielded an IC50 of under 0.05 µM.
On to `CN(C)[C@H]1CN(c2ccc3c(n2)Cn2cc(-c4ccc(C#N)cc4)cc2-c2nccn2-3)C[C@H]1O` [Compound 302, 4-(7-((3S,4R)-3-(dimethylamino)-4-hydroxypyrrolidin-1-yl)-9H-imidazo[2,1-c]pyrido[3,2-e]pyrrolo[1,2-a][1,4]diazepin-12-yl)benzonitrile], for which the IC50 was 0.05 to 0.1 µM.
`CN(C)C[C@@H]1CN(c2ccc3c(c2)Cn2cc(-c4ccc(C#N)cc4)cc2-c2nccn2-3)C[C@@H]1O` [Compound 129, 4-(7-((3R,4R)-3-((dimethylamino)methyl)-4-hydroxypyrrolidin-1-yl)-9H-benzo[e]imidazo[2,1-c]pyrrolo[1,2-a][1,4]diazepin-12-yl)benzonitrile] gave an IC50 of under 0.05 µM.
Regarding `CN1CC2(CCN(c3ccc4c(n3)Cn3cc(-c5ccc(F)cc5)cc3-c3nccn3-4)C2)C1` [Compound 441, 12-(4-fluorophenyl)-7-(2-methyl-2,6-diazaspiro[3.4]octan-6-yl)-9H-imidazo[2,1-c]pyrido[3,2-e]pyrrolo[1,2-a][1,4]diazepine], the IC50 is under 0.05 µM.
`CN(C)[C@@H]1CN(c2ccc3c(c2)Cn2cc(-c4ccc(C#N)cc4)cc2-c2nccn2-3)C[C@@H]1O` [Compound 134, 4-(7-((3R,4S)-3-(dimethylamino)-4-hydroxypyrrolidin-1-yl)-9H-benzo[e]imidazo[2,1-c]pyrrolo[1,2-a][1,4]diazepin-12-yl)benzonitrile] gave a 50% inhibitory concentration (IC50) of under 0.05 µM.
With `Cc1cc(N2C[C@@H](CN(C)C)[C@H](O)C2)cc2c1-n1ncnc1-c1cc(-c3ccc(F)cc3)cn1C2` [Compound 513, (3S,4R)-4-((dimethylamino)methyl)-1-(12-(4-fluorophenyl)-5-methyl-9H-benzo[e]pyrrolo[1,2-a][1,2,4]triazolo[5,1-c][1,4]diazepin-7-yl)pyrrolidin-3-ol] the figure was 0.1 to 0.2 µM; with `N#Cc1ccc(-c2cc3n(c2)Cc2cc(N4CCC5(CNC5)C4)ccc2-n2ncnc2-3)cc1` [Compound 256, 4-(7-(2,6-diazaspiro[3.4]octan-6-yl)-9H-benzo[e]pyrrolo[1,2-a][1,2,4]triazolo[5,1-c][1,4]diazepin-12-yl)benzonitrile], under 0.05 µM; with `CN(C)C[C@H]1CN(c2ccc3c(c2)Cn2cc(-c4ccc(C#N)cc4)cc2-c2nncn2-3)C[C@@H]1O` (racemic) [Compound 74, 4-(7-(trans-3-((dimethylamino)methyl)-4-hydroxypyrrolidin-1-yl)-9H-benzo[e]pyrrolo[1,2-a][1,2,4]triazolo[3,4-c][1,4]diazepin-12-yl)benzonitrile], under 0.05 µM.
In turn, `CN[C@@H]1CCN(c2ccc3c(c2)Cn2c(cc(-c4ccc(C#N)cc4)c2Cl)-c2nncn2-3)C1` [Compound 166, (R)-4-(11-chloro-7-(3-(methylamino)pyrrolidin-1-yl)-9H-benzo[e]pyrrolo[1,2-a][1,2,4]tri-azolo[3,4-c][1,4]diazepin-12-yl)benzonitrile] yielded an IC50 of 0.1 to 0.2 µM.
In the case of `CC(C)(CO)NC[C@@H]1CCN(c2ccc3c(c2)Cn2cc(-c4ccc(F)cc4)cc2-c2nccn2-3)C1` [Compound 360, (S)-2-(((1-(12-(4-fluorophenyl)-9H-benzo[e]imidazo[2,1-c]pyrrolo[1,2-a][1,4]diazepin-7-yl)pyrrolidin-3-yl)methyl)amino)-2-methylpropan-1-ol], the IC50 was under 0.05 µM.
`N#Cc1ccc(-c2cc3n(c2)Cc2cc(N4C[C@@H](F)[C@@H](N)C4)ccc2-n2cnnc2-3)cc1` (racemic) [Compound 76, 4-(7-(cis-3-amino-4-fluoropyrrolidin-1-yl)-9H-benzo[e]pyrrolo[1,2-a][1,2,4]triazolo[3,4-c][1,4]diazepin-12-yl)benzonitrile] returned an IC50 of under 0.05 µM.
With `CN(C)C[C@H]1CN(c2ccc3c(n2)Cn2cc(-c4ccc(C#N)cc4)cc2-c2nccn2-3)C[C@H]1O` [Compound 298, 4-(7-((3S,4S)-3-((dimethylamino)methyl)-4-hydroxypyrrolidin-1-yl)-9H-imidazo[2,1-c]pyrido[3,2-e]pyrrolo[1,2-a][1,4]diazepin-12-yl)benzonitrile] the figure was under 0.05 µM.

The record behind these values is patent US10562909B2, “Fused quadracyclic compounds, compositions and uses thereof” (Tabomedex Biosciences, LLC, priority 2016, dated 2020).
